Data set [1] concerns E. coli ST131. In words: MIC by broth microdilution. The format is cell-based, Escherichia coli. The following applies: peptidomimetic alone. The gist of the method:
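MICs were determined by CLSI broth microdilution. Combinations used fixed peptidomimetic:antibiotic ratios of 2:1 with rifampicin and 1:4 with azithromycin, and potentiation of other antibiotics was tested on COMPAN1F panels. MBCs came from OD600 growth curves over 24 h at 37°C, followed by plating of wells without growth onto MHA.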
A general note: Dilution methods test growth across graded concentrations, often in twofold steps.

Data set [2] can be described thus: MTS/PMS cell viability assay. The following applies: human, HepG2 hepatocytes, 1 h exposure, read-out: Cytotoxicity HepG2 EC50 ± SD. The format is cell-based. The essentials: (§1)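 NIH 3T3 and HepG2 cells at 80–90% confluence exposed 1 h to compound in serum-free medium, then MTS/PMS added for 1 h at 37 °C; absorbance read at 492 nm. Viability normalized to medium (0% death) and 0.2% SDS (100% death); EC50 from Hill fit constrained 0–100%, technical triplicates.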

Data set [3] is described as follows: MTS/PMS cell viability assay. Conditions: mouse, NIH 3T3 fibroblasts, 1 h exposure, read-out: Cytotoxicity NIH 3T3 EC50 ± SD. In kind it is cell-based, mouse. The gist of the method:
as §1

In a further data set the test system is K. pneumoniae ST258. The gist of the method: (§2)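 Two-dimensional checkerboard broth microdilution in MHB II, with twofold dilutions of peptidomimetic and antibiotic on crossed axes and 18–20 h incubation per CLSI. FICI = MICA(A+B)/MICA(alone) + MICB(A+B)/MICB(alone); ≤0.5 is interpreted as synergy.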
In data set [4] the test system is P. aeruginosa ATCC 27853. The essentials: as §2
For data set [5], the system named is E. coli ST131. The essentials: as §2
Data set [6] concerns P. aeruginosa ATCC 27853. Description: MIC by broth microdilution. The format is cell-based, Pseudomonas aeruginosa. The following applies: peptidomimetic alone. The essentials:
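Potentiation is scored as MIC of standard antibiotics in prepared dilution plates with peptidomimetic present, added just prior to pathogen inoculation. MICs are read by CLSI broth microdilution.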

The mark [7] stands for this setting: MIC of azithromycin combined with the labelled peptidomimetic.
The mark [8] stands for this setting: MIC of rifampicin combined with the labelled peptidomimetic.

Where two headings read alike, the source gives them in different places.

Broadly, the EC50 is the concentration giving half of the maximal effect. For the compound `NCCCC[C@H](NC(=O)CCN(Cc1ccccc1)C(=O)[C@H](CCCCN)NC(=O)CCN(Cc1ccccc1)C(=O)[C@H](CCCCN)NC(=O)CCN(Cc1ccccc1)C(=O)[C@H](CCCCN)NC(=O)CCN(Cc1ccccc1)C(=O)[C@H](CCCCN)NC(=O)CCN(Cc1ccccc1)C(=O)[C@H](CCCCN)NC(=O)CCN(Cc1ccccc1)C(=O)[C@H](CCCCN)NC(=O)CCN(Cc1ccccc1)C(=O)[C@@H](N)CCCCN)C(=O)N(CCC(N)=O)Cc1ccccc1` [Peptidomimetic 1, H-(Lys-βNPhe)8-NH2], the “MIC E. coli ST131” value in the data set on E. coli ST131 [1] was found to be 2 µM. Besides, the EC50 at 1 h in data set [2] stood at 124 ± 0.81 µM; in data set [3] it was 211 ± 26.8 µM. The “Antibiotic MIC in combination (AZM)” value came to 4 µg/mL in the data set on K. pneumoniae ST258 (setting [7]) and 1 µg/mL in the data set on E. coli ST131 [5] (setting [7]). Also, the “Antibiotic MIC in combination (RIF)” value in the data set on K. pneumoniae ST258 (setting [8]) is 0.25 µg/mL; in the data set with P. aeruginosa ATCC 27853 [4] (P. aeruginosa ATCC 27853, MIC of rifampicin combined with the labelled peptidomimetic), 1 µg/mL; with E. coli ST131 [5] (setting [8]) it was 0.06 µg/mL. Further, the “Peptidomimetic MIC alone” value was determined as 16 µM with K. pneumoniae ST258 (checkerboard); 1 µM with P. aeruginosa ATCC 27853 [4] (P. aeruginosa ATCC 27853, checkerboard); 2 µM in the data set with E. coli ST131 [5] (checkerboard). Moreover, the “Peptidomimetic MIC in combination” value in the data set with K. pneumoniae ST258 (combined with AZM) was 0.5 µM; with K. pneumoniae ST258 (combined with RIF), 0.5 µM; in the data set on P. aeruginosa ATCC 27853 [4] (P. aeruginosa ATCC 27853, combined with AZM), 0.25 µM; in the data set with P. aeruginosa ATCC 27853 [4] (P. aeruginosa ATCC 27853, combined with RIF) it was 0.25 µM; in the data set on E. coli ST131 [5] (combined with AZM), 0.25 µM; with E. coli ST131 [5] (combined with RIF) it was 0.5 µM. Moreover, the “Reduction of the MIC of azithromycin” value with P. aeruginosa ATCC 27853 [4] (P. aeruginosa, sub-MIC concentrations of peptidomimetic) was 32- to 512 fold. Besides, the “MIC P. aeruginosa ATCC 27853” value with P. aeruginosa ATCC 27853 [6] is 1 µM.

These data come from article PMC6615261, “Repurposing Azithromycin and Rifampicin Against Gram-Negative Pathogens by Combination With Peptidomimetics” (Frontiers in Cellular and Infection Microbiology, 2019).
